Measured values: ChEMBL document CHEMBL1208751 (Bioorg Med Chem Lett, 2010)
≈ marks a conversion by molar mass, not a printed value.

Assay: Solubility of the compound at pH 6.8
Format: physicochemical
Conditions: buffer

Row | solubility | SMILES
1 | < 0.5 µM | CC(C)CC1n2cncc2CN(Cc2ccc(F)cc2)S1(=O)=O (configuration not stated)
2 | 500 µM (≈ 192 µg/mL) | C[C@@H](c1ccc(Cl)cc1)N1Cc2cncn2C(CC(C)(C)O)S1(=O)=O (some centres not stated)
